Assay results taken from patent US20250222145A1, “TRACER COMPOSITION FOR RADIOACTIVE PET DIAGNOSIS, INTERMEDIATE THEREOF, AND PRODUCTION METHOD THEREOF” (OSAKA UNIVERSITY, priority 2021, published 2025).

Assays:
[1] = radiochemical purity over time after production; assay type: physicochemical; details: after 5 hours of production, FIG. 1
Text: A result of measuring radiochemical purity of the obtained compound 3 is illustrated in FIG. 1.

[2] = changes over time in accumulation in the kidney (SUV, PET); assay type: in vivo, mouse; details: FIG. 3, SUV based on the radiation dose of blood
Description: (§1) ^18F-FAMT-OMe synthesized in the Example 1 was administered to a model mouse of brain tumor (C6 glioma), and accumulation properties thereof were observed Specifically, a solution containing about 10 MBq of ^18F-FAMT-OMe was intravenously injected into the mouse, and PET images were acquired at regular intervals.
In addition, FIG. 3 (left drawing) illustrates a result of measuring changes over time in the accumulation of the ^18F-FAMT-OMe in the kidney on the basis of a standardized uptake value (SUV) value based on the radiation dose of blood. As a comparative example, a result of a case using the ^18F-FAMT is illustrated in FIG. 3 (right drawing). In addition, FIG. 4 is a graph comparing the maximum value of SUV (SUVmax) with the existing tracer compounds ^18F-FBPA and ^18F-FAMT.

[3] = tested on: brain tumor (C6 glioma); experiment: PET imaging of tumor accumulation in C6 glioma model mouse; assay type: in vivo
Description: as §1

[4] = tested on: brain tumor (C6 glioma); experiment: distribution (% ID/g) in the mouse body; assay type: in vivo; details: FIG. 5; except kidney and pancreas
Text: Further, FIG. 5 is a graph representing a distribution (% ID/g) of the ^18F-FAMT-OMe of the present invention in the mouse body.

stability of radiochemical purity [1]: purity was maintained even after 5 hours | accumulation in the kidney over time (SUV) [2]: excreted from the kidney over time
Structure (SMILES): COc1ccc(CC(C)(N)C(=O)O)cc1[18F] (stereo not drawn) [Compound 3]
accumulation at a tumor site (PET images) ([3]; about 10 MBq intravenously, model mouse of brain tumor (C6 glioma), FIG. 2): clear and high accumulation at a tumor site | washing out from tumor site ([3]; in comparison with conventional ^18F-FAMT, FIG. 2): washing out was significantly gentle | accumulation one hour after administration ([3]; one hour after administration, versus conventional ^18F-FAMT): better than that of the conventional ^18F-FAMT | distribution (% ID/g): tumor versus normal organs and blood [4]: significantly higher accumulation at a tumor site
